Laboratory results reported in US20210388029A1, “CYTOPLASMIC TRANSDUCTION PEPTIDE AND INTRACELLULAR MESSENGER COMPRISING SAME” (priority 2016, published 2021).
No end group written: not given here.

Test system: HeLa cells
Experiment: Cell membrane penetration activity in HeLa cells, immunostaining / confocal laser scanning microscope
Assay type: cell-based
Conditions: 3 hours; for fluorescence signal versus concentration (zinc finger domain peptides): FITC-conjugated
Description: HeLa cells were seeded into a 12-well plate having glass at a density of 1×10^5 cells/well, and then cultured for 24 hours to attach the cells to the glass. Then, cells were treated with FITC-NC peptides at […] concentration for 3 hours. After 3 hours, the cells were washed three times with PBS, the cells were fixed with 3.7% formaldehyde for 20 minutes, and the cells were treated with PBS containing 0.2% Triton X-100 to increase the cell membrane penetration activity. Then, the cells were blocked with 3% BSA for 1 hour, reacted with lamin A/C antibody (Sigma-Aldrich, USA) at room temperature for 2 hours, and washed three times with PBS. Next, the cells were treated with Cy3-conjugated secondary antibody (Jackson ImmunoResearch, USA) at room temperature for 1 hour, washed twice with PBS, and then stained with DAPI (4′,6-diamidino-2-phenylindol) for 10 minutes. The HeLa cell-attached glass was removed and placed on a slide glass.
The HeLa cells were seeded into a 12-well plate containing glass at a density of 1×10^5 cells/well, and then cultured for 24 hours to attach the cells to the glass. Thereafter, the FITC-NC peptide, the trans-activating transcriptional activator peptide (FITC-Tat peptide), the FITC-MA11 peptide, the protein transduction domain-ys peptide (FITC-PTD-ys peptide), the translocation motif peptide (FITC-TLM peptide) and FITC-TD1 peptide were treated with the HeLa cells for 3 hours. After 3 hours, the cells were washed 3 times with PBS and the cells were fixed with 3.7% formaldehyde for 20 minutes. The cells were treated with PBS containing 0.2% Triton X-100 to increase cell membrane penetration activity and blocked with 3% BSA for 1 hour. Then, the cells were reacted with tubulin antibody (Santa Cruz Biotechnology, USA) at room temperature for 2 hours and washed three times with PBS. The cells were treated with Cy3 secondary antibody. They were reacted at room temperature for 1 hour, washed twice with PBS, and stained with DAPI for 10 minutes. The HeLa cell-attached glass was removed and placed on a slide glass.
Further, in order to identify a change in cell membrane penetration activity by FITC-NC peptide, the HeLa cells were treated with hexapeptide, FITC-hexapeptide, FITC-NC-hexapeptide, FITC-13NC35 peptide and FITC-29NC50 peptide for 3 hours in the same manner as above and observed with a confocal laser scanning microscope. Meanwhile, the amino acid sequences of the hexapeptide, PTD-ys peptide, TLM peptide, TD1 peptide, NC-hexapeptide, 13NC35 peptide and 29NC50 peptide used are shown in Table 5 below.

Substance	fluorescence signal versus concentration (zinc finger domain peptides)	also measured
29NC50 peptide: 29th to 50th amino acid of HIV-NC with second zinc finger domain, SEQ ID NO: 11 RAPRKKGCWKCGKEGHQMKDCT (cysteine pairing not given here; also: FITC label, place not given here)	fluorescence signals were increased in proportion to the concentration	–
FITC-TLM peptide: translocation motif peptide, SEQ ID NO: 7 PLSSIFSRIGDP, FITC-conjugated [reference compound]	–	cell membrane penetration (confocal) (20 μM): hardly penetrable to the cell membrane
13NC35 peptide: 13th to 35th amino acid of HIV-NC with first zinc finger domain, SEQ ID NO: 10 VKCFNCGKEGHTARNCRAPRKKG (cysteine pairing not given here; also: FITC label, place not given here)	fluorescence signals were increased in proportion to the concentration	–
hexapeptide: polypeptide cargo, SEQ ID NO: 5 EEMQRR (also: FITC label, place not given here)	–	cell membrane penetration of polypeptide cargo (confocal) (FITC-labelled): did not penetrate the cell membrane
